# Results as given in patent US11596632B2, “JAK1 pathway inhibitors for the treatment of gastrointestinal disease” (Incyte Corporation, priority 2018, dated 2023).
# Assays:
# [1] = system: TPO-induced STAT3 phosphorylation; assay: Ex vivo TPO-induced STAT3 phosphorylation in dosed patients (marker of JAK2 inhibition); set-up: species or system human
# Method: The systemic effects of Compound 1 have been studied in the auto-immune diseases RA and Ps. Inhibition of phosphorylation of STAT3 following stimulation with IL-6, a marker of AK1 inhibition, and TPO, a marker of JAK2 inhibition was measured in both studies. In patients with Ps doses of 100 mg QD, 200 mg QD, 200 mg BID, and 600 mg QD were studied.
# [2] = system: IL-6 stimulated phosphorylation of STAT3 in PBMCs; assay: IL-6 stimulated STAT3 phosphorylation in human PBMC; format: cell-based; details: read-out: in vitro IC50 for suppression of IL-6 stimulated phosphorylation of STAT3 in PBMCs (JAK1 inhibition)
# Method: Two different assays can be used to understand the functional activity of JAK1 inhibition. The first is a standard cell based assay and the other using whole blood. The former is conducted using human peripheral blood mononuclear cells (PBMC); briefly, the cells are stimulated with IL-6 to increase JAK1 activity, which is measured via phosphorylated STAT3. As increasing concentrations of Compound 1 are added, a corresponding decrease in phosphorylated STAT3 is observed. This assay is appropriate to assess JAK1 activity and/or the inhibitory activity of Compound 1 in samples that are devoid of serum proteins, e.g., feces samples.
# [3] = system: IL-6 stimulated phosphorylated STAT3 in whole blood; assay: IL-6 stimulated STAT3 phosphorylation in whole blood; format: cell-based; details: Homo sapiens, IL-6 stimulated pSTAT3, read-out: ex vivo whole blood IC50
# Method: To assess the inhibitory activity of Compound 1 in serum-rich media, e.g., plasma or whole blood, the assay is conducted using whole blood; briefly, the whole blood sample is stimulated with IL-6 and levels of phosphorylated STAT3 are determined. This assay can be conducted either in vitro (human blood samples are spiked with Compound 1) or ex vivo (whole blood samples collected from human subjects dosed with Compound 1).
# [4] = Ex vivo colon permeation study (Ussing diffusion chamber / tube), LSC; format: in vitro ADME, human; details: healthy and UC colon, 100 and 1000 nM, 1 h; LLOQ 2 times background (21 dpm)
# Method: Methods: Compound 1 concentrations in plasma and feces (colonic surrogate) were determined following a single sustained release 25 mg oral dose (see, e.g., Example B, 25 mg SR composition). Compound 1 concentrations in plasma following a single 100 mg dose were also determined in a separate study (see, e.g., Example C for measuring concentrations of Compound 1 in plasma). Ex vivo study: Colon tissue samples from healthy and UC subjects (2/group) were mounted on a vertical Ussing diffusion chamber. [^14C]Compound 1 was applied to the apical side of the chamber at 100 and 1000 nM and incubated for 1 h. Samples were collected from the donor and receiver sides for determination of Compound 1 concentration. The colonic tissue was snap frozen for quantitative autoradiography.
# A small piece of two colon samples from two healthy and UC subjects (total eight samples) were provided by Analytical Biological Services Inc. (Wilmington, Del.) and stored at −70° C. until use.
# Dose formulations, i.e., 100 nM and 1000 nM, were prepared on the day of the experiment for all tissues in the study. [^14C]Compound 1 (1.06 mg) was dissolved in dimethyl sulfoxide (DMSO; 1.514 mL) to produce a 1 mM stock solution (0.7 mg/mL). […]
# [^14C]Compound 1 concentrations in both donor and receiver sides were analyzed by LSC. The lower limit of quantitation (LLOQ) was determined as 2 times the background (21 dpm).
# [5] = Quantitative autoradioluminography (QARL) of colon sections; format: in vitro ADME, human; details: ex vivo, 100 and 1000 nM apical, 1 h
# Method: Intestinal tissue permeation studies were performed using a vertical Ussing diffusion chamber system (Harvard Apparatus, Holliston, Mass.) for healthy tissues. Frozen tissues were thawed to ambient temperature and rinsed with pre-warmed KRB buffer used for dose formulation before being gently placed on the apparatus. Permeation was carried out mucosal-to-serosal at 37° C. for 1 hour with test article in KRB buffer added to the mucosal side. The receiver side of Ussing chamber containing blank KRB buffer was stirred with air bubbles by an aerator. Due to the limited availability of the samples, UC tissues were mounted (mucosal side up) on one end of a polypropylene tube with both ends cut open, and serosal side placed on blank KRB buffer in a vial with a stirring bar. KRB containing the test article was added into the tube and thus the mucosal side of the tissue was exposed to test article during the incubation. After 1 hour incubation at 37° C., samples (100-500 μL) were taken from both donor and receiver side, and then transferred to a 1.5 mL tube for evaluating the permeation. […]
# All response curves determined for image analysis calibration were generated using a weighted 1st degree, polynomial, linear equation (1/MDC/mm^2). […]
# The LLOQ was determined as 3 times the mean background for each panel. […]
smiles,measurement,setting,value
"N#CCC1(n2cc(-c3ncnc4[nH]ccc34)cn2)CN(C2CCN(C(=O)c3ccnc(C(F)(F)F)c3F)CC2)C1 [Compound 1, {1-{1-[3-Fluoro-2-(trifluoromethyl)isonicotinoyl]piperidin-4-yl}-3-[4-(7H-pyrrolo[2,3-d]pyrimidin-4-yl)-1H-pyrazol-1-yl]azetidin-3-yl}acetonitrile]",TPO induced pSTAT3 inhibition,"[1]; RA patients, 100 mg QD to 600 mg QD, Cycle 1 Day 15",general trend of increasing TPO induced pSTAT3 inhibition
same,inhibition of pSTAT3 in response to TPO,"[1]; psoriasis patients, 100 mg QD, 200 mg QD, and 200 mg BID",no significant inhibition of pSTAT3
same,IC50,[2],58 nM
same,IC50,[3],141 nM
same,radioactivity / concentration in basolateral side (receiver compartment),[4],no Compound 1 related radioactivity was detected from the receiver side
same,penetration into colon tissue layers,[5],"penetrated into the mucosal layer and, to a lesser extent, submucosal layer in a concentration dependent manner"
